Results from US7235580B2, “Mitotic kinesin inhibitors” (Merck & Co., Inc., priority 2002, dated 2007).

These molecules were tested against T1, human KSP motor domain (KSP(367H)) (Homo sapiens, UniProt P52732) (assay: Kinesin ATPase In Vitro Assay). Settings: kinesin motor domain with microtubules, 1 mM ATP, 23° C.; free phosphate by quinaldine red/ammonium molybdate.
T1 construct: were used to amplify the motor domain and the neck linker region; made in house; host or cells: E. coli BL21 (DE3), pRSETa
T1 sequence (P52732 18-359 limits assumed): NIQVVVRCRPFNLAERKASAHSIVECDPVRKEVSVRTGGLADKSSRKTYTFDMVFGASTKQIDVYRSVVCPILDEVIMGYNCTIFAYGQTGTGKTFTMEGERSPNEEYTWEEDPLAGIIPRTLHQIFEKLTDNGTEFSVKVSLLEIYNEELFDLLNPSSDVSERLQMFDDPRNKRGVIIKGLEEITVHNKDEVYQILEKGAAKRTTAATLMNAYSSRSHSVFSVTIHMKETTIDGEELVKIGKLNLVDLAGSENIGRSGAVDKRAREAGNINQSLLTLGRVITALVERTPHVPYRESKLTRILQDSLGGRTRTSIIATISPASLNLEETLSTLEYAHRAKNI
Format: biochemical
From the text: I. Kinesin ATPase In Vitro Assay
Cloning and Expression of Human Poly-histidine Tagged KSP Motor Domain (KSP(367H))
Plasmids for the expression of the human KSP motor domain construct were cloned by PCR using a pBluescript full length human KSP construct (Blangy et al., Cell, vol. 83, pp 1159-1169, 1995) as a template. The N-terminal primer 5′-[…] (SEQ.ID.NO.: 1) and the C-terminal primer 5′-[…] […] (SEQ.ID.NO.: 2) were used to amplify the motor domain and the neck linker region. The PCR products were digested with AseI and XhoI, ligated into the NdeI/XhoI digestion product of pRSETa (Invitrogen) and transformed into E. coli BL21 (DE3).
Cells were grown at 37° C. to an OD600 of 0.5. After cooling the culture to room temperature expression of KSP was induced with 100 μM IPTG and incubation was continued overnight. Cells were pelleted by centrifugation and washed once with ice-cold PBS. Pellets were flash-frozen and stored −80° C.
Cell pellets were thawed on ice and resuspended in lysis buffer (50 mM K-HEPES, pH 8.0, 250 mM KCl, 0.1% Tween, 10 mM imidazole, 0.5 mM Mg-ATP, 1 mM PMSF, 2 mM benzimidine, 1× complete protease inhibitor cocktail (Roche)). Cell suspensions were incubated with 1 mg/ml lysozyme and 5 mM β-mercaptoethanol on ice for 10 minutes, followed by sonication (3×30 sec). All subsequent procedures were performed at 4° C. Lysates were centrifuged at 40,000×g for 40 minutes. Supernatants were diluted and loaded onto an SP Sepharose column (Pharmacia, 5 ml cartridge) in buffer A (50 mM K-HEPES, pH 6.8, 1 mM MgCl2, 1 mM EGTA, 10 μM Mg-ATP, 1 mM DTT) and eluted with a 0 to 750 mM KCl gradient in buffer A. Fractions containing KSP were pooled and incubated with Ni-NTA resin (Qiagen) for one hour. The resin was washed three times with buffer B (Lysis buffer minus PMSP and protease inhibitor cocktail), followed by three 15-minute incubations and washes with buffer B. Finally, the resin was incubated and washed for 15 minutes three times with buffer C (same as buffer B except for pH 6.0) and poured into a column. KSP was eluted with elution buffer (identical to buffer B except for 150 mM KCl and 250 mM imidazole). KSP-containing fractions were pooled, made 10% in sucrose, and stored at −80° C.
Microtubules are prepared from tubulin isolated from bovine brain. Purified tubulin (>97% MAP-free) at 1 mg/ml is polymerized at 37° C. in the presence of 10 μM paclitaxel, 1 mM DTT, 1 mM GTP in BRB80 buffer (80 mM K-PIPES, 1 mM EGTA, 1 mM MgCl2 at pH 6.8). The resulting microtubules are separated from non-polymerized tubulin by ultracentrifugation and removal of the supernatant. The pellet, containing the microtubules, is gently resuspended in 10 μM paclitaxel, 1 mM DTT, 50 μg/ml ampicillin, and 5 μg/ml chloramphenicol in BRB80.
The kinesin motor domain is incubated with microtubules, 1 mM ATP (1:1 MgCl2: Na-ATP), and compound at 23° C. in buffer containing 80 mM K-HEPES (pH 7.0), 1 mM EGTA, 1 mM DTT, 1 mM MgCl2, and 50 mM KCl. The reaction is terminated by a 2-10 fold dilution with a final buffer composition of 80 mM HEPES and 50 mM EDTA. Free phosphate from the ATP hydrolysis reaction is measured via a quinaldine red/ammonium molybdate assay by adding 150 μl of quench C buffer containing a 2:1 ratio of quench A:quench B. Quench A contains 0.1 mg/ml quinaldine red and 0.14% polyvinyl alcohol; quench B contains 12.3 mM ammonium molybdate tetrahydrate in 1.15 M sulfuric acid. The reaction is incubated for 10 minutes at 23° C., and the absorbance of the phospho-molybdate complex is measured at 540 nm.

| Compound | IC50 |
| --- | --- |
| CN1CCC(N(C)C(=O)N2CC(c3cc(F)ccc3F)=C[C@@]2(CO)c2ccccc2)CC1 (stereo in doubt) [Compound 1-10, 4-(2,5-Difluorophenyl)-2-(hydroxymethyl)-N-methyl-N-(1-methylpiperidin-4-yl)-2-phenyl-2,5-dihydro-1H-pyrrole-1-carboxamide] | ≤ 50 µM |
| CN(C)C(=O)N1CC(c2cc(F)ccc2F)=CC1(CCC(=O)Nc1ccccc1)c1ccccc1 (centres unmarked) [Compound 24-2, 2-(3-anilino-3-oxopropyl)-4-(2,5-difluorophenyl)-N,N-dimethyl-2-phenyl-2,5-dihydro-1H-pyrrole-1-carboxamide] | ≤ 50 µM |
| CN(C)C(=O)N1CC(c2cc(F)ccc2F)=CC1(CCC(=O)NN)c1ccccc1 (centres unmarked) [Compound 25-1, 4-(2,5-difluorophenyl)-2-(3-hydrazino-3-oxopropyl)-N,N-dimethyl-2-phenyl-2,5-hydro-1H-pyrrole-1-carboxamide] | ≤ 50 µM |
| COC(=O)NCCCC1(c2ccccc2)C=C(c2cc(Cl)ccc2F)CN1C(=O)N(C)C (centres unmarked) [Compound 22-1, methyl 3-{4-(5-chloro-2-fluorophenyl)-1-[(dimethylamino)carbonyl]-2-phenyl-2,5-dihydro-1H-pyrrol-2-yl}propylcarbamate] | ≤ 50 µM |
| CN(C(=O)N1CC(c2cc(F)ccc2F)=CC1(CO[Si](C)(C)C(C)(C)C)c1ccccc1)C1CCN(CC(=O)OCc2ccccc2)CC1 (centres unmarked) [Compound 16-1] | ≤ 50 µM |
| COCC1(c2ccccc2)C=C(c2cc(F)ccc2F)CN1C(=O)N(C)C (centres unmarked) [Compound 2-1, 4-(2,5-Difluorophenyl)-2-(methoxymethyl)-N,N-dimethyl-2-phenyl-2,5-dihydro-1H-pyrrole-1-carboxamide] | ≤ 50 µM |
| CN(C(=O)N1CC(c2cc(F)ccc2F)=C[C@@]1(CO)c1ccccc1)C1CCN(C2CC2)CC1 [Compound 15-1, (2S)-N-(1-cyclopropylpiperidin-4-yl)-4-(2,5-difluorophenyl)-2-(hydroxymethyl)-N-methyl-2-phenyl-2,5-dihydro-1H-pyrrole-1-carboxamide] | ≤ 50 µM |
| CN(C)C(=O)N1CC(c2cc(F)ccc2F)=CC1(CCCN)c1ccccc1 (centres unmarked) [Compound 4-3, 2-(3-Aminopropyl)-4-(2,5-difluorophenyl)-N,N-dimethyl-2-phenyl-2,5-dihydro-1H-pyrrole-1-carboxamide] | ≤ 50 µM |
| CN(C)C(=O)N1CC(c2cc(Cl)ccc2F)=CC1(CCCNS(C)(=O)=O)c1ccccc1 (centres unmarked) [Compound 21-1, 4-(5-chloro-2-fluorophenyl)-N,N-dimethyl-2-{3-[(methylsulfonyl)amino]propyl}-2-phenyl-2,5-dihydro-1H-pyrrole-1-carboxamide] | ≤ 50 µM |
| CN(C)C(=O)N1CC(c2cc(F)ccc2F)=CC1(CCCO)c1ccccc1 (centres unmarked) [Compound 4-1a, 2-(3-Hydroxypropyl)-4-(2,5-difluorophenyl)-N,N-dimethyl-2-phenyl-2,5-dihydro-1H-pyrrole-1-carboxamide] | ≤ 50 µM |
| CN(C)CCCC1(c2ccccc2)C=C(c2cc(F)ccc2F)CN1C(=O)C(C)(C)O (centres unmarked) [Compound 29-3, 1-{4-(2,5-difluorophenyl)-2-[3-(dimethylamino)propyl]-2-phenyl-2,5-dihydro-1-pyrrol-1-yl}-2-methyl-1-oxopropan-2-ol] | ≤ 50 µM |
| COCC1(c2ccccc2)C=C(c2cc(F)ccc2F)CN1C(=O)N(C)C1CCN(C)CC1 (centres unmarked) [Compound 18-2, 4-(2,5-difluorophenyl)-2-(methoxymethyl)-N-methyl-N-(1-methylpiperidin-4-yl)-2-phenyl-2,5-dihydro-1H-pyrrole-1-carboxamide] | ≤ 50 µM |
| CN(C)CC(=O)N1CCC(N(C)C(=O)N2CC(c3cc(F)ccc3F)=CC2(CO)c2ccccc2)CC1 (centres unmarked) [Compound 7-3, 4-(2,5-difluorophenyl)-N-[1-(N,N-dimethylglycyl)piperidin-4-yl]-2-(hydroxymethyl)-N-methyl-2-phenyl-2,5-dihydro-1H-pyrrole-1-carboxamide] | ≤ 50 µM |
| CN(C(=O)N1CC(c2cc(F)ccc2F)=CC1(CO)c1ccccc1)C1CCN(CCO)CC1 (centres unmarked) [Compound 11-1, 4-(2,5-difluorophenyl)-N-[1-(2-hydroxyethyl)piperidin-4-yl]-2-(hydroxymethyl)-N-methyl-2-phenyl-2,5-dihydro-1H-pyrrole-1-carboxamide] | ≤ 50 µM |
| CN(C)C(=O)N1CC(c2cc(F)ccc2F)=CC1(COCCN)c1ccccc1 (centres unmarked) [Compound 2-3, 2-[(2-Aminoethoxy)methyl]-4-(2,5-difluorophenyl)-N,N-dimethyl-2-phenyl-2,5-dihydro-1H-pyrrole-1-carboxamide] | ≤ 50 µM |
| CN(C(=O)N1CC(c2cc(F)ccc2F)=CC1(CO)c1ccccc1)C1CCN(CC(F)F)CC1 (centres unmarked) [Compound 10-1, N-[1-(2,2-difluoroethyl)piperidin-4-yl]-4-(2,5-difluorophenyl)-2-(hydroxymethyl)-N-methyl-2-phenyl-2,5-dihydro-1H-pyrrole-1-carboxamide] | ≤ 50 µM |
| CN(C)C(=O)N1CC(c2cc(F)ccc2F)=C[C@@]1(CCC(N)C(F)F)c1ccccc1 (stereo partly drawn) [Compound 31-3, (2S)-2-(3-amino-4,4-difluorobutyl)-4-(2,5-difluorophenyl)-N,N-dimethyl-2-phenyl-2,5-dihydro-1H-pyrrole-1-carboxamide] | ≤ 50 µM |
| CN(C(=O)N1CC(c2cc(F)ccc2F)=CC1(CO)c1ccccc1)C1CCN(C(CF)CF)CC1 (centres unmarked) [Compound 14-1] | ≤ 50 µM |
| CN(C(=O)N1CC(c2cc(F)ccc2F)=C[C@@]1(CO)c1ccccc1)C1CCN(CCF)CC1 [Compound 12-1, (2S)-4-(2,5-difluorophenyl)-N-[1-(2-fluoroethyl)piperidin-4-yl]-2-(hydroxymethyl)-N-methyl-2-phenyl-2,5-dihydro-1H-pyrrole-1-carboxamide] | ≤ 50 µM |
| CN(C)C(=O)N1CC(c2cc(F)ccc2F)=CC1(COCCO)c1ccccc1 (centres unmarked) [Compound 2-2, 4-(2,5-Difluorophenyl)-2-[(2-hydroxyethoxy)methyl]-N,N-dimethyl-2-phenyl-2,5-dihydro-1H-pyrrole-1-carboxamide] | ≤ 50 µM |
| CN(C)CCCC1(c2ccccc2)C=C(c2cc(F)ccc2F)CN1C(=O)N(C)C (centres unmarked) [Compound 4-4, 4-(2,5-Difluorophenyl)-2-[3-(dimethylamino)propyl]-N,N-dimethyl-2-phenyl-2,5-dihydro-1H-pyrrole-1-carboxamide] | ≤ 50 µM |
| CN(C)C(=O)N1CC(c2cc(F)ccc2F)=CC1(CO)c1ccccc1 (centres unmarked) [Compound 1-9, 4-(2,5-Difluorophenyl)-2-(hydroxymethyl)-N,N-dimethyl-2-phenyl-2,5-dihydro-1H-pyrrole-1-carboxamide] | ≤ 50 µM |
| CN(C)CCCC1(c2ccccc2)C=C(c2cc(F)ccc2F)CN1C(=O)N(C)C1CCOCC1 (centres unmarked) [Compound 28-3, 4-(2,5-difluorophenyl)-2-[3-(dimethylamino)propyl]-N-methyl-2-phenyl-N-tetrahydro-2H-pyran-4-yl-2,5-dihydro-1H-pyrrole-1-carboxamide] | ≤ 50 µM |
